Key:
[1] = tested on: CSGALNACT1 mRNA; type: cell-based, human; conditions: ascorbic acid alone; 1 week; GAPDH internal standard; average ± SEM
[2] = tested on: ANGPT1 mRNA; type: cell-based, human; conditions: ascorbic acid alone; 1 week; GAPDH internal standard; average ± SEM
[3] = tested on: IGF1 mRNA; type: cell-based, human; conditions: ascorbic acid alone; 1 week; GAPDH internal standard; average ± SEM
[4] = tested on: human nucleus pulposus cells; type: cell-based; conditions: ascorbic acid alone (170 μM in medium), culture 2 weeks; average ± SEM; control 4.33 ± 0.38

With O=C1O[C@H]([C@@H](O)CO)C(O)=C1O [Ascorbic Acid, ascorbic acid] the “Ratio to Expression Level of CSGALNACT1 mRNA in Control Taken as 1” value [1] was 2.25 ± 0.55, the “Ratio to Expression Level of ANGPT1 mRNA in Control Taken as 1” value [2] was 3.80 ± 0.91 and the “Ratio to Expression Level of IGF1 mRNA in Control Taken as 1” value [3] was 8.92 ± 3.30. The “The Ratio of GAG to DNA” value [4] was 5.88 ± 0.73.

Source: patent publication US20220079995A1 (priority 2018, published 2022)
